From patent US11780934B2, “Use of inhibitors of ADAM12 as adjuvants in tumor therapies” (INSTITUT PASTEUR, priority 2016, dated 2023)
Entries after “also recorded” stand apart in the source; their conditions may differ.

Tested on: ADAM12+ CAFs
Assay: Depletion of ADAM12+ CAFs by diphtheria toxin in M12-DTR mice bearing murine melanoma (MO5)
Assay type: in vivo, mouse
[1] = M12-DTR+DT vs tumors with normal stroma, melanoma

diphtheria toxin [DT]
depletion of ADAM12+ CAFs (M12-DTR mice, DT ip starting at day 9 or 10 after melanoma cell inoculation): specifically depleted
density of CD31+ vessels inside the tumors (M12-DTR+DT vs control (DTR negative) mice, melanoma, immunofluorescence, two or three weeks after inoculation): higher density
tumor perfusion (positive area of Hoechst 33342 staining) (M12-DTR+DT vs control mice, melanoma, Hoechst 33342 iv): increased perfusion
activation of CD31+ vessels (ICAM1+) (M12-DTR+DT vs control mice, melanoma, immunofluorescence): activated ICAM1+ phenotype
tumor growth (M12-DTR+DT vs mice with normal tumor stroma, murine melanoma model): significantly delayed; also recorded: decrease in tumor growth
frequency of CD3+ T cells in tumor [1]: significantly higher frequency; also recorded: higher T cells (CD3+) infiltration
percentage of myeloid-derived suppressor cells (MDSC) and T-regulator cells (Tregs) [1]: remained unchanged
ratio of M1/M2 macrophages [1]: increased ratio
location of CD3+ T cells in tumor (M12-DTR+DT vs tumors with normal stroma, melanoma, histology): recruited to the core of the tumor
